Results from patent publication US20180049425A1, “Bait Composition” (priority 2016, published 2018).

Assays:
[1] = system: feral pigs; conditions: bait containing 0.09% warfarin by weight of the bait; Saunders et al.; cited from earlier work
[2] = system: feral pigs; conditions: bait containing 0.13% warfarin by weight of the bait; McIlroy et al.; cited from earlier work
[3] = system: feral hogs; assay: studies using the instant feral hog control system with low dose warfarin bait; type: in vivo, Sus scrofa
Excerpt: As to particular studies, death of the feral hogs (2) occurred within not greater than about five days following exposure to the bait (3).

[4] = bait with about 0.005% warfarin by weight of the bait
[5] = bait with about 0.01% warfarin by weight of the bait

In the case of `CC(=O)CC(c1ccccc1)c1c(O)c2ccccc2oc1=O` (stereo not drawn) [warfarin], the “first death recorded after bait distribution” value [1] is listed as “six”, the feral pigs dying [2] is listed as 30 of 32 and the “time of dying after bait distribution (mean±s.e.)” value [2] is listed as 9.7 ± 0.4 days. For the same compound, the “death of the feral hogs following exposure to the bait” value [3, 4] was “ten”, the mortality rate [3, 4] was 100% and the “death of the feral hogs following exposure to the bait, particular studies” value [3, 4] was “five”. The “death of the feral hogs following exposure to the bait” value [3, 5] was “ten”, the mortality rate [3, 5] was 100% and the “death of the feral hogs following exposure to the bait, particular studies” value [3, 5] was “five”.
